33 compounds from patent US20120004228A1, “Bis Aromatic Compounds for Use as LTC4 Synthase Inhibitors” (BIOLIPOX AB, priority 2009, published 2012) can be followed below.

pIC50: −log10 of the molar value.

The pIC50 is −log10 of the IC50, conventionally taken in molar units. The term inhibition denotes how much of the control response was suppressed.

The first test concerns the target T1, Recombinant human LTC4 synthase (Homo sapiens, UniProt Q16873).
T1 construct: made in house; host or cells: Pichia pastoris ('Piccia pastoralis' [sic])
T1 sequence (Q16873 1-150): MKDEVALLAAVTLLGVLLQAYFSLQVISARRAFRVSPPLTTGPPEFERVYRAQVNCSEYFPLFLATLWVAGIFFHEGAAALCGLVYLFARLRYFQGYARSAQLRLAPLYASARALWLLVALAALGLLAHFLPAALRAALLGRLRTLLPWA
Briefly: In vitro LTC4 synthase assay (LTA4 to LTC4, HTRF detection). The test is classed as biochemical.
Conditions: not given
The procedure:
In the assay, LTC4 synthase catalyses the reaction where the substrate LTA4 is converted to LTC4. Recombinant human LTC4 synthase is expressed in Piccia pastoralis and the purified enzyme is dissolved in 25 mM tris-buffer pH 7.8 supplemented with 0.1 mM glutathione (GSH) and stored at −80° C. The assay is performed in phosphate buffered saline (PBS) pH 7.4 and 5 mM GSH in 384-well plates.
The following is added chronologically to each well:
1. 48 μL LTC4 synthase in PBS with 5 mM GSH. The total protein concentration in this solution is 0.5 μg/mL. 2. 1 μL inhibitor in DMSO (final concentration 10 μM). 3. Incubation of the plate at room temperature for 10 min. 4. 1 μL LTA4 (final concentration 2.5 μM). 5. Incubation of the plate at room temperature for 5 min. 6. 10 μL of the incubation mixture is analysed using homogenous time resolved fluorescent (HTRF) detection.
For the compound `C=CCCC(=O)N(c1ccccc1)c1cc(C(=O)O)cc(C(=O)c2ccc(N(C)c3ccc(Cl)cc3)cc2)c1` [10:32, 3-{4-[(4-Chlorophenyl)(methyl)amino]benzoyl}-5-[(N-phenyl)pent-4-enamido]-benzoic acid], the pIC50 is 6.18.

Turning to `CN(c1ccc(Cl)cc1)c1ccc(C(=O)c2cc(C(=O)O)cc(N(CC3CCC3)c3ccccc3)c2)cc1` [10:30, 3-{4-[(4-Chlorophenyl)(methyl)amino]benzoyl}-5-[(cyclobutylmethyl)(phenyl)-amino]benzoic acid], the pIC50 was 6.83.

Turning to `CN(c1ccc(Cl)cc1)c1ccc(C(=O)c2cc(C(=O)O)cc(N(CC3(C)COC3)c3ccccc3)c2)cc1` [10:27, 3-{4-[(4-Chlorophenyl)(methyl)amino]benzoyl}-5-{[(3-methyloxetan-3-yl)-methyl](phenyl)amino}benzoic acid], the pIC50 is 6.88.

As to `CN(c1ccc(Cl)cc1)c1ccc(C(=O)c2cc(C(=O)O)cc(N(C)c3ccccc3)c2)cc1` [Example 10:23, 5-{4-[(4-Chlorophenyl)(methyl)amino]benzoyl}-3-[methyl(phenyl)amino]benzoic acid], the pIC50 was 7.40.

Turning to `CN(c1ccc(Cl)cc1)c1ccc(C(=O)c2cc(Oc3ccccc3)cc(C(=O)O)c2)nc1` [Example 8:1, 3-{5-[(4-Chlorophenyl)(methyl)aminol]picolinoyl}-5-phenoxybenzoic acid], the pIC50 was 7.17.

`CN(c1ccc(Cl)cc1)c1ccc(C(=O)c2cc(C(=O)O)cc(C(=O)Nc3ccc4c(c3)OC(F)(F)O4)c2)cc1` [2:12, 3-{4-[(4-Chlorophenyl)(methyl)amino]benzoyl}-5-[3,4-(difluoromethylene-dioxy)phenylcarbamoyl]benzoic acid]: the pIC50 is 6.37.

With `Cc1ccccc1CNc1cc(C(=O)O)cc(C(=O)c2ccc(N(C)c3ccc(Cl)cc3)cc2)c1` [10:16, 3-{4-[(4-Chlorophenyl)(methyl)amino]benzoyl}-5-(2-methylbenzylamino)-benzoic acid], the pIC50 is 6.55.

With `CN(c1ccc(Cl)cc1)c1ccc(C(=O)c2cc(C(=O)O)cc(N(CC(C)(C)O)c3ccccc3)c2)nc1` [Example 9:27, 3-{5-[(4-Chlorophenyl)(methyl)amino]picolinoyl}-5-[(2-hydroxy-2-methylpropyl)-(phenyl)amino]benzoic acid], the pIC50 is 7.51.

Regarding `CN(c1ccc(Cl)cc1)c1ccc(C(=O)c2cc(C(=O)O)cc(N(C(=O)CC3CCCC3)c3ccccc3)c2)cc1` [10:39, 3-{4-[(4-Chlorophenyl)(methyl)amino]benzoyl}-5-[2-cyclopentyl-(N-phenyl)-acetamido]benzoic acid], the pIC50 was 6.72.

On to `COc1cccc(Nc2cc(C(=O)O)cc(C(=O)c3ccc(N(C)c4ccc(Cl)cc4)cc3)c2)c1` [Example 10:3, 3-{4-[(4-Chlorophenyl)(methyl)amino]benzoyl}-5-(3-methoxyphenylamino)-benzoic acid], for which the pIC50 was 6.56.

Consider `CN(c1ccc(Cl)cc1)c1ccc(C(=O)c2cc(C(=O)O)cc(-n3ccc4ccccc43)c2)nc1` [Example 16, 3-{5-[(4-Chlorophenyl)(methyl)aminol]picolinoyl}-5-(1-indolyl)benzoic acid], for which the pIC50 was 6.59.

With `O=C(O)c1cc(Nc2ccc(Cl)cc2)ccc1C(=O)c1ccc(Nc2ccc(Cl)cc2)cc1` [Example 6:1, 5-(4-Chlorophenylamino)-2-[4-(4-chlorophenylamino)benzoyl]benzoic acid], the pIC50 is 6.20.

`CN(c1ccc(Cl)cc1)c1ccc(C(=O)c2cc(Nc3ccccc3)cc(C(=O)O)c2)nc1` [9:11, 3-{5-[(4-Chlorophenyl)(methyl)amino]picolinoyl}-5-(phenylamino)benzoic acid]: the pIC50 is 7.21.

Regarding `COc1ccc(NC(=O)c2cc(C(=O)O)cc(C(=O)c3ccc(N(C)c4ccc(Cl)cc4)cc3)c2)cc1OC` [2:14, 3-{4-[(4-Chlorophenyl)(methyl)amino]benzoyl}-5-(3,4-dimethoxyphenyl-carbamoyl)benzoic acid], the pIC50 is 6.03.

For the compound `CN(c1ccc(Cl)cc1)c1ccc(C(=O)c2cc(Oc3ccccc3)cc(C(=O)O)c2)cc1` [8:11, 3-{4-[(4-Chlorophenyl)(methyl)amino]benzoyl}-5-phenoxybenzoic acid], the pIC50 is 7.21.

For the compound `CN(c1ccc(Cl)cc1)c1ccc(C(=O)c2cc(Nc3ccc4c(c3)OCCO4)cc(C(=O)O)c2)nc1` [9:33, 3-{5-[(4-Chlorophenyl)(methyl)amino]picolinoyl}-5-(3,4-ethylenedioxy-phenylamino)benzoic acid], the pIC50 was 6.33.

With `CN(c1ccc(Cl)cc1)c1ccc(C(=O)c2cc(Nc3ccccc3OC(F)F)cc(C(=O)O)c2)cc1` [10:12, 3-{4-[(4-Chlorophenyl)(methyl)amino]benzoyl}-5-(2-difluoromethoxyphenyl-amino)benzoic acid], the pIC50 was 6.96.

For the compound `COc1cccc(C(=O)c2cc(C(=O)O)cc(C(=O)c3ccc(N(C)c4ccc(Cl)cc4)cn3)c2)c1` [Example 15, 3-{5-[(4-Chlorophenyl)(methyl)amino]picolinoyl}-5-(3-methoxybenzoyl)benzoic acid], the pIC50 is 6.76.

Regarding `CN(c1ccc(Cl)cc1)c1ccc(C(=O)c2cc(C(=O)O)cc(C(=O)Nc3ccccc3OC(F)F)c2)cc1` [2:13, 3-{4-[(4-Chlorophenyl)(methyl)amino]benzoyl}-5-[2-(difluoromethoxy)phenyl-carbamoyl]benzoic acid], the pIC50 is 6.15.

For `O=C(O)c1cc(Nc2ccc(Cl)cc2)cc(C(=O)c2ccc(Nc3ccc(Cl)cc3)cc2)c1` [Example 3, 3-(4-Chorophenylamino)-5-[4-(4-chlorophenylamino)benzoyl]benzoic acid], the pIC50 was 6.84.

Consider `CN(c1ccc(Cl)cc1)c1ccc(C(=O)c2cc(C(=O)O)cc(N(CCCCO)c3cccnc3)c2)nc1` [9:39, 3-{5-[(4-Chlorophenyl)(methyl)amino]picolinoyl}-5-[(4-hydroxybutyl)(3-pyridyl)-amino]benzoic acid], for which the negative-log IC50 (pIC50) was 6.90.

`CN(c1ccc(Cl)cc1)c1ccc(C(=O)c2cc(NC3CCSCC3)cc(C(=O)O)c2)cc1` [10:21]: the pIC50 is 6.84.

Take `CN(c1ccc(Cl)cc1)c1ccc(C(=O)c2cc(C(=O)O)cc(N(C(=O)CO)c3ccccc3)c2)nc1` [9:38, 3-{5-[(4-Chlorophenyl)(methyl)amino]picolinoyl}-5-(2-hydroxy-N-phenylacet-amido)benzoic acid]: the pIC50 was 6.33.

On to `CN(c1ccc(Cl)cc1)c1ccc(C(=O)c2cc(C(=O)O)cc(N3CCc4ccccc4C3)c2)nc1` [9:13, 3-{5-[(4-Chlorophenyl)(methyl)amino]picolinoyl}-5-(1,2,3,4-tetrahydroiso-quinolin-2-yl)benzoic acid], for which the pIC50 is 6.27.

On to `CN(c1ccc(Cl)cc1)c1ccc(C(=O)c2cc(Oc3ccccc3Cl)cc(C(=O)O)c2)nc1` [8:8, 3-(2-Chlorophenoxy)-{5-[(4-chlorophenyl)(methyl)amino]picolinoyl}benzoic acid], for which the pIC50 was 7.11.

On to `CC(=O)N(c1ccccc1)c1cc(C(=O)O)cc(C(=O)c2ccc(N(C)c3ccc(Cl)cc3)cn2)c1` [Example 9:23, 3-{5-[(4-Chlorophenyl)(methyl)amino]picolinoyl}-5-(N-phenylacetamido)benzoic acid], for which the pIC50 was 6.70.

Consider `COc1cccc(Nc2cc(C(=O)O)cc(C(=O)c3ccc(N(C)c4ccc(Cl)cc4)cn3)c2)c1` [9:31, 3-{5-[(4-Chlorophenyl)(methyl)amino]picolinoyl}-5-(3-methoxyphenylamino)-benzoic acid], for which the pIC50 was 6.28.

In the case of `CN(c1ccc(Cl)cc1)c1ccc(C(=O)c2cc(NCc3ccc(Cl)cc3Cl)cc(C(=O)O)c2)cc1` [10:14, 3-{4-[(4-Chlorophenyl)(methyl)amino]benzoyl}-5-(2,4-dichlorobenzylamino)-benzoic acid], the pIC50 is 7.12.

As for `COc1cccc(N(C)c2cc(C(=O)O)cc(C(=O)c3ccc(N(C)c4ccc(Cl)cc4)cn3)c2)c1` [9:21, 3-{5-[(4-Chlorophenyl)(methyl)amino]picolinoyl}-5-[(3-methoxyphenyl)(methyl)-amino]benzoic acid], the negative logarithm of the IC50 (pIC50) was 6.56.

As for `CN(c1ccc(Cl)cc1)c1ccc(C(=O)c2cc(Nc3ccccc3F)cc(C(=O)O)c2)cc1` [10:9, 3-{4-[(4-Chlorophenyl)(methyl)amino]benzoyl}-5-(2-fluorophenylamino)-benzoic acid], the pIC50 was 6.79.

For the compound `Cc1ccc(Oc2cc(C(=O)O)cc(C(=O)c3ccc(N(C)c4ccc(Cl)cc4)cn3)c2)cc1` [8:6, 3-{5-[(4-Chlorophenyl)(methyl)amino]picolinoyl}-5-(p-tolyloxy)benzoic acid], the pIC50 was 6.92.

For the compound `CN(c1ccc(Cl)cc1)c1ccc(C(=O)c2cc(Oc3ccc(C#N)cc3)cc(C(=O)O)c2)nc1` [8:7, 3-{5-[(4-Chlorophenyl)(methyl)amino]picolinoyl}-5-(4-cyanophenoxy)benzoic acid], the pIC50 is 6.56.

As to `CN(c1ccc(Cl)cc1)c1ccc(C(=O)c2cc(C(=O)O)cc(C(=O)Nc3cccc(Cl)c3)c2)nc1` [2:4, 3-{5-[(4-Chlorophenyl)(methyl)amino]picolinoyl}-5-(3-chlorophenyl-carbamoyl)-benzoic acid], the pIC50 was 6.41.

The same test, now with this note: 5 min; total concentration of title compound in the assay 10 μM.
With `O=C(O)c1cc(Nc2ccc(Cl)cc2)ccc1C(=O)c1ccc(Nc2ccc(Cl)cc2)cc1` [Example 6:1, 5-(4-Chlorophenylamino)-2-[4-(4-chlorophenylamino)benzoyl]benzoic acid], the inhibition at 10 µM came to 96%.

In the case of `O=C(O)c1cc(Nc2ccc(Cl)cc2)cc(C(=O)c2ccc(Nc3ccc(Cl)cc3)cc2)c1` [Example 3, 3-(4-Chorophenylamino)-5-[4-(4-chlorophenylamino)benzoyl]benzoic acid], the inhibition at 10 µM stood at 99%.
